From patent publication EP0103381B1, “Substituted anthra(1,9-cd)pyrazol-6(2H)-ones” (WARNER-LAMBERT COMPANY, priority 1982, dated 1984)
Where two headings read alike, the source gives them in different places.

How the values were obtained:
Streptococcus faecalis = experiment: agar plate paper-disc inhibition zone screening; type: cell-based; details: Enterococcus faecalis, read-out: Inhibition Zone Diameter mm (Dose mg/ml) S. Faecalis; for zone of inhibition at 1000 µg/mL: Dose 1.0 mg/ml
Protocol: (§1) The bacterial and yeast isolates are maintained in agar slants or in liquid media, hereby designated as inoculum media. The cultures are transferred at regular intervals in such media. (See Table for the corresponding inoculum media of each culture.) The organisms are generally transferred on to agar slants or liquid inoculum media and incubated overnight (18-20 hours): 37°C for the bacterial isolates and 28°C for the fungal cultures.
(§2) The microbial cells from the overnight agar slants are then scraped off and suspended in saline solution (0.85% NaCI). The microbial concentrations are adjusted to a light transmittancy of 20-35%, Junior Coleman Spectrophotometer (555 M). For the organisms that are maintained in liquid media, an aliquot of the culture suspension is simply diluted with saline to 20-35% light transmittancy.
(§3) The above microbial suspension serve as inocula for the assay plates. Thus, 0.16-10 ml (see Table for exact amount) are used to inoculate 100 ml of the molten-agar assay medium.
(§4) Stainless steel frames, 12.3 x 25.3 cm (ID) and glass plates, 15.3 x 31.7 cm are used to make the test trays. The frames are attached to the plates with tape at each end and the inner edges sealed with 2% agar. Twenty five ml of inoculated assay medium is spread evenly on each tray and allowed to solidify. The trays are covered, inverted, and refrigerated until used.
(§5) The compounds or samples to be tested are dissolved in suitable solvents, e.g., alcohols, dimethylsulfoxide, or N,N-dimethylformamide. The samples are generally dissolved so that the final concentration of the solvent is <10%.^* The compounds are tested at different concentrations: 3,000; 1,000; 500; 100; and 10 mcg/ml. Paper discs (12.7 mm diameter) are placed on the agar trays with forceps, then 0.08 ml of the dissolved compound is pipetted onto each disc using a 0.2 ml pipette.
(§6) The disked agar trays are incubated overnight (18-20 hours) at 37°C for the bacterial cultures and 28°C for the yeasts. The Penicillium avellaneium tray is incubated for at least […] since it is a slower- growing organism.
(§7) Active compounds show a zone of inhibition around the disc. The diameter of the zone is measured in mm. The zone diameter of active compounds ranges from a minimum of 13.5 mm to as high as 60 mm. The size of the zone diameter generally reflects the activity of the compound: the larger the zone the greater the activity.

Bacillus subtilis = experiment: agar plate paper-disc inhibition zone screening; type: cell-based; details: read-out: Inhibition Zone Diameter mm (Dose mg/ml) B. Subtilis; for zone of inhibition at 1000 µg/mL: Dose 1.0 mg/ml; for zone of inhibition at 500 µg/mL: Dose 0.5 mg/ml
Protocol: as §1, §2, §3, §4, §5, §6, §7

Penicillium avellaneum = experiment: agar plate paper-disc inhibition zone screening; type: cell-based; details: Hamigera avellanea, read-out: Inhibition Zone Diameter mm (Dose mg/ml) P. Avellaneum
Protocol: The Penicillium avellaneum is grown for six days, at 28°C, on an agar medium. This is to allow sporulation of the culture. The organism is then harvested by scraping off the cells from the agar surface (mycelia and spores) and suspending them in saline solution containing 0.05% Tween 80.
The suspension is adjusted to a light transmittancy of 20%. One ml of this suspension is used to inoculate 100 ml of the molten-agar assay medium.
as §4, §5, §6, §7

Escherichia coli = experiment: agar plate paper-disc inhibition zone screening; type: cell-based; details: read-out: Inhibition Zone Diameter mm (Dose mg/ml) E. Coli; for zone of inhibition at 3000 µg/mL: Dose 3.0 mg/ml; for zone of inhibition at 500 µg/mL: Dose 0.5 mg/ml
Protocol: as §1, §2, §3, §4, §5, §6, §7

Aerobacter aerogenes = experiment: agar plate paper-disc inhibition zone screening; type: cell-based; details: Klebsiella aerogenes, read-out: Inhibition Zone Diameter mm (Dose mg/ml) A. Aerogenes; for zone of inhibition at 3000 µg/mL: Dose 3.0 mg/ml
Protocol: as §1, §2, §3, §4, §5, §6, §7

[1] = system: lymphocytic leukemia P388; experiment: in vivo lymphocytic leukemia P388 test; parameters: species or system mice; details: Mus musculus, P388, ip, 720 h, two single doses four days apart, read-out: T/C × 100 (Percent); for response vs control in vivo at 6.25 mg/kg: P388, Dose 6.25 mg/kg intraperitoneally; for response vs control in vivo at 25 mg/kg: P388, Dose 25 mg/kg intraperitoneally; for response vs control in vivo at 12.5 mg/kg: P388, Dose 12.5 mg/kg intraperitoneally
Protocol: The in vivo lymphocytic leukemia P388 test is carried out by the United States National Cancer Institute. The animals used are either male or female CD2F, mice. There are six to seven animals per test group. The tumor transplant is by intraperitoneal injection of dilute ascitic fluid containing cells of lymphocytic leukemia P388. The test compounds are administered intraperitoneally in two single doses with a four-day interval between doses at various dose levels following tumor inoculation. The animals are weighed and survivors are recorded on a regular basis for 30 days. A ratio of survival time for treated (T)/ control (C) animals is calculated. The criterion for efficacy is T/C x 100 > 125%. The positive control compound in this test is 1,4-dihydroxy-5,8-[bis[[2-[(2-hydroxyethyl)amino]-ethyl]amino]-9,10-anthracene- dione given at dosages ranging from 12.0 to 0.075 mg/kg. See Cancer Chemotherapy Reports, Part 3, 3, 1 (1972) for a comprehensive discussion of the protocol.

| SMILES | zone of inhibition at 3000 µg/mL (Streptococcus faecalis; Dose 3.0 mg/ml) [mm] | zone of inhibition at 3000 µg/mL (Penicillium avellaneum; Dose 3.0 mg/ml) [mm] | zone of inhibition at 3000 µg/mL (Escherichia coli) [mm] | zone of inhibition at 3000 µg/mL (Aerobacter aerogenes) [mm] | zone of inhibition at 1000 µg/mL (Bacillus subtilis) [mm] | other results |
| --- | --- | --- | --- | --- | --- | --- |
| CN(C)CCNCCNc1ccc2c3c(nn2CCCN)-c2c(O)ccc(O)c2C(=O)c13 [Example 91] | 0 | 0 |  |  |  | zone of inhibition at 3000 µg/mL (Bacillus subtilis; Dose 3.0 mg/ml): 15 mm |
| O=C1c2c(O)cccc2-c2nn(CCNCCO)c3ccc(NCCNCCO)c1c23 [Example 83] |  |  |  |  |  | zone of inhibition at 3000 µg/mL (Streptococcus faecalis): 0 mm; zone of inhibition at 3000 µg/mL (Bacillus subtilis): 14 mm; zone of inhibition at 3000 µg/mL (Penicillium avellaneum): 0 mm |
| Cn1nc2c3c(c(NCCN)ccc31)C(=O)c1c(O)ccc(O)c1-2 [Example 40, 5-[(2-Aminoethyl)amino]-7,10-dihydroxy-2-methylanthra[1,9-cd]pyrazol-6(2H)-one] | 14 | 0 | 14 | 14 |  | zone of inhibition at 3000 µg/mL (Bacillus subtilis; Dose 3.0 mg/ml): 0 mm |
| CCCCCCNc1ccc2c3c(nn2CCN(CC)CC)-c2ccccc2C(=O)c13 [Example 8, 2-[2-(Diethylamino)ethyl]-5-(hexylamino)anthra[1,9-cd]pyrazol-6(2H)-one] | 0 | 16 | 0 | 0 | 16 |  |
| CCN(CC)CC(O)Cn1nc2c3c(c(Cl)ccc31)C(=O)c1ccccc1-2 (stereo not shown) [H; Cl*; CH2CHOHCH2NEt2] |  |  |  | 17 | 14 | zone of inhibition at 500 µg/mL (Escherichia coli): 14 mm; zone of inhibition at 1000 µg/mL (Streptococcus faecalis): 15 mm; zone of inhibition at 1000 µg/mL (Penicillium avellaneum; Dose 1.0 mg/ml): 16 mm |
| O=C1c2c(O)ccc(O)c2-c2nn(CCNCCO)c3ccc(NCCN4CCOCC4)c1c23 [Example 61, 7,10-Dihydroxy-2-[2-[(2-hydroxyethyl)amino]ethyl]-5-[[2-(4-morpholinyl)ethyl]amino]anthra[1,9-cd]pyrazol-6(2H)-one] | 0 | 0 | 14 | 0 | 15 |  |
| O=C1c2c(NCCNCCO)cccc2-c2nn(CCNCCO)c3cccc1c23 [Example 81, 2-[2-[(2-Hydroxyethyl)amino]lethyl]-7-[[2-[(2-hydroxyethyl)amino]ethyl]amino]anthra[1,9-cd]pyrazol-6(2H)-one] | 0 | 0 |  |  |  | zone of inhibition at 1000 µg/mL (Escherichia coli; Dose 1.0 mg/ml): 20 mm; zone of inhibition at 500 µg/mL (Aerobacter aerogenes; Dose 0.5 mg/ml): 17 mm; zone of inhibition at 500 µg/mL (Bacillus subtilis): 16 mm |
| NCCn1nc2c3c(c(NCCCNCCO)ccc31)C(=O)c1c(O)ccc(O)c1-2 [Example 75, 2-(2-Aminoethyl)-5-[[3-[(2-hydroxyethyl)amino]propyl]amino]-7,10-dihydroxyanthra[1,9-cd]pyrazol-6(2H)-one] | 0 | 0 |  |  |  | zone of inhibition at 500 µg/mL (Bacillus subtilis): 14 mm; response vs control in vivo at 1.56 mg/kg ([1]; P388, Dose 1.56 mg/kg intraperitoneally): 181%; response vs control in vivo at 3.12 mg/kg ([1]; P388, Dose 3.12 mg/kg intraperitoneally): 177%; response vs control in vivo at 6.25 mg/kg [1]: 184% |
| O=C1c2ccccc2-c2nn(CCO)c3ccc(NCCN4CCOCC4)c1c23 [Example 14, 2-(2-Hydroxyethyl)-5-[[2-(4-morpholinyl)ethyl]amino][1,9-cd]pyrazol-6(2H)-one] | 0 | 0 | 16 | 0 | 16 |  |
| CCN(CC)CCn1nc2c3c(c(Cl)ccc31)C(=O)c1c(O)ccc(O)c1-2 [Example 49, 5-Chloro-2-[2-(diethylamino)ethyl]-7,1 0-dihydroxyanthra[1,9-cd] pyrazol-6(2H)-one] | 0 | 16 | 0 | 0 | 14 |  |
| O=C1c2ccccc2-c2nn(CCNCCO)c3ccc(NCCO)c1c23 [Example 24, 5-[(2-Hydroxyethyl)amino]-2-[2-[(2-hydroxyethyl)amino]ethyl]anthra[1,9-cd]pyrazol-6(2H)-one] |  | 0 |  |  |  | zone of inhibition at 500 µg/mL (Escherichia coli): 15 mm; zone of inhibition at 1000 µg/mL (Aerobacter aerogenes; Dose 1.0 mg/ml): 14 mm; zone of inhibition at 1000 µg/mL (Streptococcus faecalis): 14 mm; zone of inhibition at 500 µg/mL (Bacillus subtilis): 18 mm |
| O=C1c2cccc(O)c2-c2nn(CCNCCO)c3ccc(NCCNCCO)c1c23 [Example 85, 10-Hydroxy-2-(2-[(2-hydroxyethyl)amino]ethyl]-5-[[2-[(2-hydroxyethyl)amino]ethyl]amino]anthra[1,9-cd] pyrazol-6(2H)-one] | 0 | 0 |  |  |  | zone of inhibition at 3000 µg/mL (Bacillus subtilis; Dose 3.0 mg/ml): 14 mm; response vs control in vivo at 25 mg/kg [1]: 163%; response vs control in vivo at 50 mg/kg ([1]; P388, Dose 50 mg/kg intraperitoneally): 172% |
| CNCCNc1ccc2c3c(nn2CCNCCO)-c2cccc(O)c2C(=O)c13 [Example 84, 7-Hydroxy-2-[2-[(2-hydroxyethyl)amino]ethyl]-5-[[2-(methylamino)ethyl]amino]anthra[1,9-cd]pyrazol-6(2H)-one] | 14 | 0 |  |  |  | zone of inhibition at 3000 µg/mL (Bacillus subtilis; Dose 3.0 mg/ml): 15 mm |
| O=C1c2c(O)ccc(O)c2-c2nn(CCNCCO)c3ccc(NCCN(CCO)CCO)c1c23 [Example 67, 5-[[2-[Bis(2-hydroxyethyl)amino]ethyl]amino]-7,10-dihydroxy-2-[2-[(2-hydroxyethyl)-amino]ethyl]anthra(1,9-cd]pyrazol-6(2H)-one] |  |  |  |  |  | response vs control in vivo at 12.5 mg/kg [1]: 158%; response vs control in vivo at 25 mg/kg [1]: 187% |
| CSCCn1nc2c3c(c(NCCNCCO)ccc31)C(=O)c1c(O)ccc(O)c1-2 [Example 48] |  |  |  |  |  | response vs control in vivo at 6.25 mg/kg [1]: 140%; response vs control in vivo at 12.5 mg/kg [1]: 132% |
